Counter-ions that a name gives are not always drawn.
Legend:
[1] = molecular target: T1, Adrenergic β2 (H292 cells) (Homo sapiens, UniProt P07550); assay: Assay for Adrenergic β2 Mediated cAMP Production (concentration response, AlphaScreen cAMP detection); format: cell-based; conditions: for EC50: cAMP production, 60 minutes at room temperature, 300 μM rolipram, read-out: β2 pEC50 (converted); for β2 Intrinsic activity: fraction relative to the maximum activity determined for formoterol
T1 construct: endogenous in cells; host or cells: H292 cells
T1 sequence (P07550 whole entry): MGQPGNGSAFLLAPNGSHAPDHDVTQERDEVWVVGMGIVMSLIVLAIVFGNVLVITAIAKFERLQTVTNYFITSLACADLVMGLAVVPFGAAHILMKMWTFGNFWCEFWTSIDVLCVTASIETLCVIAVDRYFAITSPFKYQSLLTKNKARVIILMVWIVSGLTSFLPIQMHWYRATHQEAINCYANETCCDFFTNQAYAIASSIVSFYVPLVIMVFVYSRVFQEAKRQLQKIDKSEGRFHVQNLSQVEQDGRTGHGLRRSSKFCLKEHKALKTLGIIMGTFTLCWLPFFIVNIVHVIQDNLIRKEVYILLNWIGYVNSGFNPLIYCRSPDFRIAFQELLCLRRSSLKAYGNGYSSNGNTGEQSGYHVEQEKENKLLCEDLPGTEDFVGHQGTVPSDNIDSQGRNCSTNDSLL
In short: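 H292 cells plated overnight, pre-treated with rolipram (300 μM final) 10 min, then compound 60 min at room temperature in HBSS/10 mM HEPES pH7.4/5 mM glucose, 1% DMSO. Lysate cAMP read by AlphaScreen against a cAMP standard curve; 4-parameter fit gives pEC50 and intrinsic activity as fraction of formoterol maximum.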

[2] = molecular target: T2, human muscarinic acetylcholine M3 receptor (M3-ACh) (Homo sapiens, UniProt P20309); assay: Muscarinic 3 Receptor Binding Assay ([3H]NMS competition, SPA); conditions: for IC50: [3H]NMS 0.1 nM, CHO-K1 cell membranes, 16 hours at room temperature, read-out: M3 pIC50 (converted)
T2 construct: expressed in transfected cells; host or cells: CHO-K1 (Chinese Hamster Ovary) cell membranes
T2 sequence (P20309 whole entry): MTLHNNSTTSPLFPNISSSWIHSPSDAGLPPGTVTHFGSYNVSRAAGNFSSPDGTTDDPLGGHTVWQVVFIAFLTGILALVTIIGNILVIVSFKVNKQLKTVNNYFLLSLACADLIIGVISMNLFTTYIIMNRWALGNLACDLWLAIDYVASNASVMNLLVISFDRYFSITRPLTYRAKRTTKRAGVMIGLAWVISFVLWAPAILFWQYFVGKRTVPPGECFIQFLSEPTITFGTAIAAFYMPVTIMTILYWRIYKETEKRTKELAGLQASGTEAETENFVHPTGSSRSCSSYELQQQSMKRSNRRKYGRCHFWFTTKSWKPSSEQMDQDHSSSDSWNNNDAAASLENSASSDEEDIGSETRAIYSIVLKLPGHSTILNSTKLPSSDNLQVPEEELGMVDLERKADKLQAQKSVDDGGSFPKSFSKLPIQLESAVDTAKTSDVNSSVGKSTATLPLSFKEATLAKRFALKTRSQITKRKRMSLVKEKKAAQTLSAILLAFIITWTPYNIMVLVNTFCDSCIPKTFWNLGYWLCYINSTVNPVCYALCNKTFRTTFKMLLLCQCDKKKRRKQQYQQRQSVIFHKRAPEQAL
In short: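 Competition SPA binding of 0.1 nM [3H]NMS (quarter Kd) to membranes from CHO-K1 cells expressing human M3, in 20 mM HEPES pH 7.4, 5 mM MgCl2, 1% DMSO. Incubated 16 h at room temperature; non-specific binding with 1 µM atropine. pIC50 from 50% reduction of specific binding.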

| Compound | EC50 [1] [nM] | β2 Intrinsic activity [1] | IC50 [2] [nM] | inhibition at 1 µM ([2]; read-out: M3 inhibtion at 1 μM (printed in the M3 pIC50 column)) [%] |
| --- | --- | --- | --- | --- |
| O=C(c1csc(-c2ccccc2)n1)N1CCOC2(CCN(CCOc3ccc(CNC[C@H](O)c4ccc(O)c5[nH]c(=O)sc45)cc3)CC2)C1 [Example 112, (R)-4-Hydroxy-7-(1-hydroxy-2-(4-(2-(4-(2-phenylthiazole-4-carbonyl)-1-oxa-4,9-diazaspiro[5.5]undecan-9-yl)ethoxy)benzylamino)ethyl)benzo[d]thiazol-2(3H)-one ditrifluoroacetate] | 126 | 0.9 | 501 | – |
| O=C(c1csc(-c2ccccc2)n1)N1CCOC2(CCN(CCCCCCCCCNC[C@H](O)c3ccc(O)c4[nH]c(=O)sc34)CC2)C1 [Example 113, (R)-4-Hydroxy-7-(1-hydroxy-2-(9-(4-(2-phenylthiazole-4-carbonyl)-1-oxa-4,9-diazaspiro[5.5]undecan-9-yl)nonylamino)ethyl)benzo[d]thiazol-2(3H)-one formate] | 20 | 0.8 | 20 | – |
| CC(C)c1ncc(C(=O)N2CCOC3(CCN(CCOc4ccc(CNC[C@H](O)c5ccc(O)c6[nH]c(=O)sc56)cc4)CC3)C2)s1 [Example 114, (R)-4-Hydroxy-7-(1-hydroxy-2-(4-(2-(4-(2-isopropylthiazole-5-carbonyl)-1-oxa-4,9-diazaspiro[5.5]undecan-9-yl)ethoxy)benzylamino)ethyl)benzo[d]thiazol-2(3H)-one ditrifluoracetate] | 63.1 | 0.9 | 316 | – |
| CC(C)c1ncc(C(=O)N2CCOC3(CCN(CCCCCCCCCNC[C@H](O)c4ccc(O)c5[nH]c(=O)sc45)CC3)C2)s1 [Example 115, (R)-4-Hydroxy-7-(1-hydroxy-2-(9-(4-(2-isopropylthiazole-5-carbonyl)-1-oxa-4,9-diazaspiro[5.5]undecan-9-yl)nonylamino)ethyl)benzo[d]thiazol-2(3H)-one formate] | 6.31 | 0.8 | 7.94 | – |
| CC(C)c1cc(C(=O)N2CCOC3(CCN(Cc4cc(CCNC[C@H](O)c5ccc(O)c6[nH]c(=O)sc56)cs4)CC3)C2)cs1 [Example 264, (R)-4-Hydroxy-7-(1-hydroxy-2-(2-(5-((4-(5-isopropylthiophene-3-carbonyl)-1-oxa-4,9-diazaspiro[5.5]undecan-9-yl)methyl)thiophen-3-yl)ethylamino)ethyl)benzo[d]thiazol-2(3H)-one ditrifluoroacetate] | 20 | 1 | 7.94 | – |
| CCC(CC)c1nc(C(=O)N2CCOC3(CCN(Cc4cccc(CCNC[C@H](O)c5ccc(O)c6[nH]c(=O)sc56)c4)CC3)C2)cs1 [Example 265, (R)-4-Hydroxy-7-(1-hydroxy-2-(3-((4-(2-(pentan-3-yl)thiazole-4-carbonyl)-1-oxa-4,9-diazaspiro[5.5]undecan-9-yl)methyl)phenethylamino)ethyl)benzo[d]thiazol-2(3H)-one ditrifluoroacetate] | 12.6 | 1 | 0.794 | – |
| O=C(c1ccc2occc2c1)N1CCOC2(CCN(Cc3cccc(CCNC[C@H](O)c4ccc(O)c5[nH]c(=O)sc45)c3)CC2)C1 [Example 266, (R)-7-(2-(3-((4-(Benzofuran-5-carbonyl)-1-oxa-4,9-diazaspiro[5.5]undecan-9-yl)methyl)phenethylamino)-1-hydroxyethyl)-4-hydroxybenzo[d]thiazol-2(3H)-one ditrifluoroacetic acid] | 7.94 | 0.7 | 0.316 | – |
| CCCc1cc(C(=O)N2CCOC3(CCN(Cc4cccc(CCNC[C@H](O)c5ccc(O)c6[nH]c(=O)sc56)c4)CC3)C2)cs1 [Example 267, (R)-4-Hydroxy-7-(1-hydroxy-2-(3-((4-(5-propylthiophene-3-carbonyl)-1-oxa-4,9-diazaspiro[5.5]undecan-9-yl)methyl)phenethylamino)ethyl)benzo[d]thiazol-2(3H)-one ditrifluoroacetate] | 10 | 0.9 | 1.58 | – |
| CC(C)c1ccc(C(=O)N2CCOC3(CCN(Cc4cccc(CCNC[C@H](O)c5ccc(O)c6[nH]c(=O)sc56)c4)CC3)C2)s1 [Example 268, (R)-4-Hydroxy-7-(1-hydroxy-2-(3-((4-(5-isopropylthiophene-2-carbonyl)-1-oxa-4,9-diazaspiro[5.5]undecan-9-yl)methyl)phenethylamino)ethyl)benzo[d]thiazol-2(3H)-one ditrifluoroacetate] | 10 | 1 | 1.58 | – |
| CC(C)c1nc(C(=O)N2CCOC3(CCN(CCOc4ccc(CCNC[C@H](O)c5ccc(O)c6[nH]c(=O)sc56)c(F)c4F)CC3)C2)cs1 [Example 269, (R)-7-(2-(2,3-Difluoro-4-(2-(4-(2-isopropylthiazole-4-carbonyl)-1-oxa-4,9-diazaspiro[5.5]undecan-9-yl)ethoxy)phenethylamino)-1-hydroxyethyl)-4-hydroxybenzo[d]thiazol-2(3H)-one ditrifluoroacetate] | 31.6 | 1.1 | 6.31 | – |

Continued, values first:

| EC50 [1] [nM] | β2 Intrinsic activity [1] | IC50 [2] [nM] | inhibition at 1 µM ([2]; read-out: M3 inhibtion at 1 μM (printed in the M3 pIC50 column)) [%] | Compound |
| --- | --- | --- | --- | --- |
| 251 | 0.7 | 79.4 | – | CC(C)c1nc(C(=O)N2CCOC3(CCN(Cc4ccc(C(F)(F)F)c(CCNC[C@H](O)c5ccc(O)c6[nH]c(=O)sc56)c4)CC3)C2)cs1 [Example 270, (R)-4-Hydroxy-7-(1-hydroxy-2-(5-((4-(2-isopropylthiazole-4-carbonyl)-1-oxa-4,9-diazaspiro[5.5]undecan-9-yl)methyl)-2-(trifluoromethyl)phenethylamino)ethyl)benzo[d]thiazol-2(3H)-one ditrifluoroacetate] |
| 6.31 | 1 | – | 30 | Cc1nc(C(=O)N2CC(C)(C)OC3(CCN(Cc4cccc(CCNC[C@H](O)c5ccc(O)c6[nH]c(=O)sc56)c4)CC3)C2)cs1 [Example 271, (R)-7-(2-(3-((2,2-Dimethyl-4-(2-methylthiazole-4-carbonyl)-1-oxa-4,9-diazaspiro[5.5]undecan-9-yl)methyl)phenethylamino)-1-hydroxyethyl)-4-hydroxybenzo[d]thiazol-2(3H)-one ditrifluoroacetate] |
| 10 | 1 | 794 | – | CCc1cc(C(=O)N2CC(C)(C)OC3(CCN(Cc4cccc(CCNC[C@H](O)c5ccc(O)c6[nH]c(=O)ccc56)c4)CC3)C2)cs1 [Example 272, (R)-5-(2-(3-((4-(5-ethylthiophene-3-carbonyl)-2,2-dimethyl-1-oxa-4,9-diazaspiro[5.5]undecan-9-yl)methyl)phenethylamino)-1-hydroxyethyl)-8-hydroxyquinolin-2(1H)-one ditrifluoroacetate] |
| 398 | 0.5 | 79.4 | – | CC(C)c1nc(C(=O)N2CCOC3(CCN(Cc4ccc(C(F)(F)F)c(CCNC[C@H](O)c5ccc(O)c6[nH]c(=O)ccc56)c4)CC3)C2)cs1 [Example 273, (R)-8-Hydroxy-5-(1-hydroxy-2-(5-((4-(2-isopropylthiazole-4-carbonyl)-1-oxa-4,9-diazaspiro[5.5]undecan-9-yl)methyl)-2-(trifluoromethyl)phenethylamino)ethyl)quinolin-2(1H)-one ditrifluoroacetate] |

— patent publication US8148373B2, “Compounds” (AstraZeneca AB, priority 2008, dated 2012)
